# Results reported in PubChem BioAssay AID330 (DTP/NCI, 2004).
# “And” between values parts separate entries of the source, which are not always exact repeats. Equal entries are not always repeated. Toxic doses and inconclusive results are not listed.
# Tested on: P388 leukemia ip, CD2F1 mice, survival T/C
# Experiment: NCI In Vivo Anticancer Drug Screen. Data for tumor model P388 Leukemia (intraperitoneal) in CD2F1 (CDF1) mice
# Settings: endpoint: median survival time, higher = longer survival
# Summary of the method: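 Mice carrying the transplanted tumor received test compound or vehicle. Survival was recorded in each group, and the value is the treated-group measurement divided by that of the vehicle-treated control group.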
# [1] = dose: 50.0 mg/kg/injection, schedule: Q01DX005 (ip), vehicle: Klucel (hydroxypropylcellulose) (HPC)
# [2] = dose: 100.0 mg/kg/injection, schedule: Q01DX005 (ip), vehicle: Klucel (hydroxypropylcellulose) (HPC)
# [3] = dose: 200.0 mg/kg/injection, schedule: Q01DX005 (ip), vehicle: Klucel (hydroxypropylcellulose) (HPC)
# [4] = dose: 60.0 mg/kg/injection, schedule: Q01DX005 (ip), vehicle: saline
# [5] = dose: 120.0 mg/kg/injection, schedule: Q01DX005 (ip), vehicle: saline
# [6] = dose: 240.0 mg/kg/injection, schedule: Q01DX005 (ip), vehicle: saline
# [7] = dose: 12.5 mg/kg/injection, schedule: Q01DX005 (ip), vehicle: saline
# [8] = dose: 50.0 mg/kg/injection, schedule: Q01DX009 (ip), vehicle: saline with Tween-80
# [9] = dose: 100.0 mg/kg/injection, schedule: Q01DX009 (ip), vehicle: saline with Tween-80
# [10] = dose: 200.0 mg/kg/injection, schedule: Q01DX009 (ip), vehicle: saline with Tween-80
smiles,measurement,setting,value
CCCCCCCCCCCCCCCC(=O)Nc1ccn(C2OC(CO)C(O)C2O)c(=O)n1 (centres undefined),T/C,"dose: 3.12 mg/kg/injection, schedule: Q01DX009 (ip), vehicle: suspension in saline",172 % of control
same,T/C,"dose: 6.25 mg/kg/injection, schedule: Q01DX009 (ip), vehicle: suspension in saline",188 % of control
same,T/C,"dose: 12.5 mg/kg/injection, schedule: Q01DX009 (ip), vehicle: suspension in saline",191 % of control and 235 % of control
same,T/C,"dose: 25.0 mg/kg/injection, schedule: Q01DX009 (ip), vehicle: suspension in saline",260 % of control and 283 % of control
COc1cc2c(c(OC)c1OC)-c1ccc(=O)c(OC)cc1[C@@H](NC(=O)C(F)(F)F)CC2,T/C,"dose: 2.5 mg/kg/injection, schedule: Q01DX009 (ip), vehicle: Klucel (hydroxypropylcellulose) (HPC)",105 % of control
same,T/C,"dose: 5.0 mg/kg/injection, schedule: Q01DX009 (ip), vehicle: Klucel (hydroxypropylcellulose) (HPC)",97 % of control
same,T/C,"dose: 10.0 mg/kg/injection, schedule: Q01DX009 (ip), vehicle: Klucel (hydroxypropylcellulose) (HPC)",96 % of control
same,T/C,"dose: 20.0 mg/kg/injection, schedule: Q01DX009 (ip), vehicle: Klucel (hydroxypropylcellulose) (HPC)",105 % of control
same,T/C,"dose: 40.0 mg/kg/injection, schedule: Q01DX009 (ip), vehicle: Klucel (hydroxypropylcellulose) (HPC)",102 % of control
CCN(CC)CCNCc1cc(Cl)c2cccnc2c1O,T/C,"dose: 50.0 mg/kg/injection, schedule: Q01DX009 (ip), vehicle: saline",93 % of control
same,T/C,"dose: 100.0 mg/kg/injection, schedule: Q01DX009 (ip), vehicle: saline",106 % of control
COc1ccc2nccc(C(C)=O)c2c1,T/C,[1],100 % of control
same,T/C,[2],98 % of control
same,T/C,[3],106 % of control
CN(C)CCCNC(=O)c1cccc2cccc(C(=O)O)c12,T/C,[4],97 % of control
same,T/C,[5],101 % of control
same,T/C,[6],104 % of control
O=c1oc(-c2ccccc2)nc2c1CCCS2,T/C,[1],100 % of control
same,T/C,[2],99 % of control and 103 % of control
same,T/C,[3],103 % of control and 89 % of control
COc1ccc2c([O-])c3[n+](cc2c1OC)CCc1cc2c(cc1-3)OCO2,T/C,"dose: 50.0 mg/kg/injection, schedule: Q04DX002 (ip), vehicle: saline with Tween-80",103 % of control
same,T/C,"dose: 100.0 mg/kg/injection, schedule: Q04DX002 (ip), vehicle: saline with Tween-80",106 % of control
same,T/C,"dose: 200.0 mg/kg/injection, schedule: Q04DX002 (ip), vehicle: saline with Tween-80",102 % of control
C1CN2CCN3CCCN(CCN(C1)C2)C3,T/C,[7],102 % of control
same,T/C,"dose: 25.0 mg/kg/injection, schedule: Q01DX005 (ip), vehicle: saline",107 % of control
same,T/C,"dose: 50.0 mg/kg/injection, schedule: Q01DX005 (ip), vehicle: saline with Tween-80",101 % of control
O=C(Nc1ccc(F)cc1)Nc1nccs1,T/C,"dose: 17.5 mg/kg/injection, schedule: Q01DX009 (ip), vehicle: Klucel (hydroxypropylcellulose) (HPC)",108 % of control
same,T/C,"dose: 35.0 mg/kg/injection, schedule: Q01DX009 (ip), vehicle: Klucel (hydroxypropylcellulose) (HPC)",110 % of control
same,T/C,[8],96 % of control
same,T/C,"dose: 70.0 mg/kg/injection, schedule: Q01DX009 (ip), vehicle: Klucel (hydroxypropylcellulose) (HPC)",108 % of control
same,T/C,[9],95 % of control
same,T/C,"dose: 140.0 mg/kg/injection, schedule: Q01DX009 (ip), vehicle: Klucel (hydroxypropylcellulose) (HPC)",115 % of control
same,T/C,[10],104 % of control
C/C=C(/C)C(=O)OC1CC(C)=C2C(=O)C=C(C)C2C2OC(=O)C(C)(OC(=O)/C(C)=C\C)C12 (centres undefined),T/C,"dose: 4.0 mg/kg/injection, schedule: Q01DX009 (ip), vehicle: Klucel (hydroxypropylcellulose) (HPC)",102 % of control
same,T/C,"dose: 8.0 mg/kg/injection, schedule: Q01DX009 (ip), vehicle: Klucel (hydroxypropylcellulose) (HPC)",102 % of control
same,T/C,"dose: 16.0 mg/kg/injection, schedule: Q01DX009 (ip), vehicle: Klucel (hydroxypropylcellulose) (HPC)",96 % of control
same,T/C,"dose: 32.0 mg/kg/injection, schedule: Q01DX009 (ip), vehicle: Klucel (hydroxypropylcellulose) (HPC)",93 % of control
Cn1c(N)c(C(=O)C(F)(F)F)c(=O)n(C)c1=O,T/C,[8],99 % of control
same,T/C,[9],95 % of control
same,T/C,[10],95 % of control
O=C(O)Cc1sc(=O)[nH]c1O,T/C,"dose: 100.0 mg/kg/injection, schedule: Q04DX003 (ip), vehicle: saline",100 % of control
same,T/C,"dose: 200.0 mg/kg/injection, schedule: Q04DX003 (ip), vehicle: saline",100 % of control
same,T/C,"dose: 400.0 mg/kg/injection, schedule: Q04DX003 (ip), vehicle: saline",95 % of control
CCC(CC)N(C)C(C)(C)CO,T/C,"dose: 50.0 mg/kg/injection, schedule: Q04DX003 (ip), vehicle: saline sonified",96 % of control
same,T/C,"dose: 100.0 mg/kg/injection, schedule: Q04DX003 (ip), vehicle: saline sonified",100 % of control
O=c1c2cc(Br)ccc2nc2n1N=C(c1ccccc1)C(c1ccccc1)=NN2,T/C,"dose: 50.0 mg/kg/injection, schedule: Q04DX002 (ip), vehicle: Klucel (hydroxypropylcellulose) (HPC)",88 % of control
same,T/C,"dose: 100.0 mg/kg/injection, schedule: Q04DX002 (ip), vehicle: Klucel (hydroxypropylcellulose) (HPC)",91 % of control
same,T/C,"dose: 200.0 mg/kg/injection, schedule: Q04DX002 (ip), vehicle: Klucel (hydroxypropylcellulose) (HPC)",87 % of control
Cc1cc(NCCCCCCNc2cc(C)nc3cc(N(C)C)ccc23)c2ccc(N(C)C)cc2n1,T/C,"dose: 1.56 mg/kg/injection, schedule: Q01DX009 (ip), vehicle: distilled water + Tween-80 + alcohol",110 % of control
same,T/C,"dose: 6.25 mg/kg/injection, schedule: Q01DX009 (ip), vehicle: distilled water + Tween-80 + alcohol",151 % of control
same,T/C,"dose: 12.5 mg/kg/injection, schedule: Q01DX009 (ip), vehicle: distilled water + Tween-80 + alcohol",154 % of control and 158 % of control
same,T/C,"dose: 25.0 mg/kg/injection, schedule: Q01DX009 (ip), vehicle: distilled water + Tween-80 + alcohol",178 % of control and 181 % of control
CCC(O)C1(OC)C=CC(OC)O1 (centres undefined),T/C,"dose: 3.12 mg/kg/injection, schedule: Q01DX005 (ip), vehicle: saline",100 % of control
same,T/C,"dose: 6.25 mg/kg/injection, schedule: Q01DX005 (ip), vehicle: saline",97 % of control
same,T/C,[7],101 % of control
COC(=O)Nc1cnc(C=O)c(C)c1-c1ccc(OC)c(OC)c1OCc1ccccc1,T/C,"dose: 12.5 mg/kg/injection, schedule: Q01DX009 (ip), vehicle: other",111 % of control
same,T/C,"dose: 25.0 mg/kg/injection, schedule: Q01DX009 (ip), vehicle: other",119 % of control
same,T/C,"dose: 50.0 mg/kg/injection, schedule: Q01DX009 (ip), vehicle: other",110 % of control
same,T/C,"dose: 100.0 mg/kg/injection, schedule: Q01DX009 (ip), vehicle: other",103 % of control
same,T/C,"dose: 200.0 mg/kg/injection, schedule: Q01DX009 (ip), vehicle: other",117 % of control
same,T/C,"dose: 400.0 mg/kg/injection, schedule: Q01DX009 (ip), vehicle: other",90 % of control
N#CC1C(=O)NC(=O)C(C#N)C1c1ccc(C2C(C#N)C(=O)NC(=O)C2C#N)cc1 (centres undefined),T/C,"dose: 50.0 mg/kg/injection, schedule: Q01DX009 (ip), vehicle: Klucel (hydroxypropylcellulose) (HPC)",105 % of control
same,T/C,"dose: 100.0 mg/kg/injection, schedule: Q01DX009 (ip), vehicle: Klucel (hydroxypropylcellulose) (HPC)",100 % of control
same,T/C,"dose: 200.0 mg/kg/injection, schedule: Q01DX009 (ip), vehicle: Klucel (hydroxypropylcellulose) (HPC)",113 % of control
CSCCC(N)C(=O)NCCS(=O)(=O)O (centres undefined),T/C,[4],105 % of control
same,T/C,[5],109 % of control
same,T/C,[6],102 % of control
N#Cc1ccccc1-n1c(=O)c2cc3c(=O)n(-c4ccccc4C#N)c(=O)c3cc2c1=O,T/C,"dose: 25.0 mg/kg/injection, schedule: Q01DX009 (ip), vehicle: saline with Tween-80",100 % of control and 103 % of control
same,T/C,[8],95 % of control and 97 % of control
same,T/C,[9],100 % of control and 103 % of control
same,T/C,[10],102 % of control and 95 % of control
same,T/C,"dose: 400.0 mg/kg/injection, schedule: Q01DX009 (ip), vehicle: saline with Tween-80",100 % of control and 96 % of control
CC1=CC(=O)C2C(CC1)C2(C)C (centres undefined),T/C,"dose: 100.0 mg/kg/injection, schedule: Q04DX003 (ip), vehicle: saline + Tween-80 + alcohol",102 % of control
same,T/C,"dose: 200.0 mg/kg/injection, schedule: Q04DX003 (ip), vehicle: saline + Tween-80 + alcohol",95 % of control
same,T/C,"dose: 400.0 mg/kg/injection, schedule: Q04DX003 (ip), vehicle: saline + Tween-80 + alcohol",91 % of control
CC(CN(C)C)C(/C=C/c1ccc(Cl)cc1)=N\NC(=O)c1ccccc1 (centres undefined),T/C,"dose: 15.0 mg/kg/injection, schedule: Q01DX005 (ip), vehicle: saline",101 % of control
same,T/C,"dose: 30.0 mg/kg/injection, schedule: Q01DX005 (ip), vehicle: saline",100 % of control
same,T/C,[4],104 % of control and 121 % of control
same,T/C,[5],114 % of control
